The subject of series [1] is HER2-positive tumour cell line, SK-BR-3. Put plainly: In vitro potency / cell viability assay (CellTiter-Glo) in SK-BR-3 cell line. The format is cell-based. An excerpt:
(§1) Loss of tumour cell viability following treatment with cytotoxic drugs or ADCs in vitro can be measured by growing cell lines in the presence of increasing concentrations of drugs or ADCs and quantifying the loss of proliferation or metabolic activity using CellTiter-Glo® Luminescence reagent (Promega). The protocol describes cell seeding, drug treatment and determination of the cell viability in reference to untreated cells based on ATP synthesis, which is directly related to the number of cells present in the well.
HER2-positive tumour cell line, SK-BR-3 (ATCC-HTB-30), was grown in McCoy's 5A medium complemented with 10% foetal bovine serum, 100 u/mL Penicillin and 100 μg/mL Streptomycin. SK-BR-3 cells were detached, seeded at 5,000 cells per well (100 μL/well) into poly-D-lysine coated clear bottom white-walled 96-well plates and incubated for 24 h at 37° C. and 5% CO2.
Serial dilutions of compounds were prepared in triplicate using the relevant cell culture medium as diluent. The CD30-positive Karpas-299 cells were treated with 50 μL compounds at 2× assay concentration. Medium from the SK-BR-3 assay plates was removed and replaced by 100 μL serially diluted compounds at 1× assay concentration. The assay concentrations are specified in Table 1. The cells were then incubated with the compounds (total volume 100 μL/well), at 37° C. and 5% CO2 for a further 96 h.
(§2) At the end of the incubation, cell viability was measured using the CellTiter-Glo® Luminescence reagent, as described by the manufacturer's instructions. The data was subsequently analysed using a four parameter non-linear regression model.
(§3) Viability was expressed as % of untreated cells and calculated using the following formula: […]
The % viability (Y-axis) was plotted against the logarithm of drug concentration in nM (X-axis) to extrapolate the IC50 values for all compounds.

Series [2] can be described thus: Stability of atropisomers on heating in DMSO (HPLC). The format is physicochemical. To be noted: 50° C., 1 h. On the procedure: The stability of the atropisomers was investigated by heating solutions of compounds 80 and 81 in DMSO at 50° C. for 1 h.
Series [3] relates to CD30-positive human T cell lymphoma cell line Karpas-299. The series is described as follows: In vitro potency / cell viability assay (CellTiter-Glo) in Karpas-299 cell line. It is filed as cell-based. To be noted: 96 h incubation.
From the text: as §1
The CD30-positive human T cell lymphoma cell line Karpas-299 was obtained from Dr Abraham Karpas at the University of Cambridge. The cells were grown in RPMI medium supplemented with 10% foetal bovine serum, 100 U/mL Penicillin and 100 μg/mL Streptomycin. […]
as §2, §3
Loss of tumour cell viability following treatment with ADCs incorporating maytansinoids of the invention was tested by growing cell lines in the presence of increasing concentrations of ADCs and quantifying the loss of proliferation or metabolic activity as described in Example 2. […]
For orientation: Cellular ATP, detected with luciferase, serves as a proxy for viable cell number.

Series [4] can be described thus: Stability in mouse serum (LC-Orbitrap-MS). To be noted: 37° C., 4 and 7 days, 90% (v/v) mouse serum, 0.05 mg/mL. The format is in vitro ADME. On the procedure:
Solutions of compounds 26 and 78 (comparator) in a 50/50 v/v mixture of DMF:buffer solution (20 mM sodium phosphate, 150 mM sodium chloride, 20 mM EDTA, pH 7.5) (0.5 mg/mL) were diluted to 0.05 mg/mL in mouse serum (90% (v/v) serum content). An aliquot of each sample corresponding to the ‘0’ time point was immediately frozen at −80° C., while the remaining sample was incubated at 37° C. for 7 d. Additional aliquots were taken after 4 and 7 d and frozen at −80° C. Prior to analysis, the samples were removed from the freezer and maytansinoid-related species were extracted from the serum by protein precipitation. Protein precipitation was performed by adding acetonitrile (75% v/v) to each time-point aliquot, and after gentle mixing, allowing the mixtures to stand at 4° C. for 2 h. The precipitated protein was then separated by centrifugation (1400×g, 30 min, 4° C.) and the supernatant containing the extracted maytansinoid-related species were analysed by LC-Orbitrap-MS.
The samples were further diluted with water resulting in a 15% v/v acetonitrile solution. An aliquot (2.5 μL) of each solution was then injected onto a nano-liquid chromatography MS system, consisting of a Dionex ULTIMATE 3000 UPLC fitted with a PepMap C18 column (0.075×150 mm), coupled online to an Orbitrap-MS instrument operated in ES positive mode at 75K resolution using lock mass. […]

Where [5] appears, read: free compounds, as described in Example 2, read-out: Average IC50 (nM) SK-BR-3 Cell line.
The mark [6] stands for this setting: Homo sapiens, SK-BR-3, 96 h, 96 h incubation, CellTiter-Glo, read-out: IC50 (nM) SKBR3 Cell line.
The mark [7] stands for this setting: Homo sapiens, SK-BR-3, free compounds, as described in Example 2, read-out: Average IC50 (nM) SK-BR-3 Cell line.

Entries after “also recorded” stand apart in the source; their conditions may differ. Like-named read-outs stand apart in the source and are kept apart here.

In general, IC50 refers to the concentration at which inhibition is half-maximal.

Turning to `COc1cc2cc(c1-c1ccc(N)cc1Cl)N(C)C(=O)C[C@H](OC(=O)C(C)C)[C@]1(C)O[C@H]1[C@H](C)[C@@H]1C[C@@](O)(NC(=O)O1)[C@H](OC)/C=C/C=C(\C)C2` (single isomer, unassigned) [Compound 80], in series [1] (setting [5]), the IC50 was 3.6 nM. Moreover, in series [2], the “stability of atropisomers (HPLC chromatograms)” value was “no changes were observed”. For `COc1cc2cc(c1-c1ccc(N)cc1Cl)N(C)C(=O)C[C@H](OC(=O)C(C)C)[C@]1(C)O[C@H]1[C@H](C)[C@@H]1C[C@@](O)(NC(=O)O1)[C@H](OC)/C=C/C=C(\C)C2` (single isomer, unassigned) [Compound 81] the same measures were 0.9 nM and “no changes were observed”. Consider `COc1cc2cc(c1-c1ccc(NC(=O)OC(C)(C)C)cc1)N(C)C(=O)C[C@H](OC(=O)C(C)C)[C@]1(C)O[C@H]1[C@H](C)[C@@H]1C[C@@](O)(NC(=O)O1)[C@H](OC)/C=C/C=C(\C)C2` [Compound 3, 4-(N-Bocamino)phenyl-AP3], for which the results for the IC50 in series [3] and in series [1] (setting [6]) were 0.7 nM and 4 nM, respectively. For the compound `COc1cc2cc(c1-c1ccc(N)cc1)N(C)C(=O)C[C@H](OC(=O)C(C)C)[C@]1(C)O[C@H]1[C@H](C)[C@@H]1C[C@@](O)(NC(=O)O1)[C@H](OC)/C=C/C=C(\C)C2` [Compound 4], in series [1] (setting [7]), the IC50 came to 1.2 nM. Consider `COc1cc2cc(c1-c1ccc(N)c(Cl)c1)N(C)C(=O)C[C@H](OC(=O)C(C)C)[C@]1(C)O[C@H]1[C@H](C)[C@@H]1C[C@@](O)(NC(=O)O1)[C@H](OC)/C=C/C=C(\C)C2` [Compound 5], for which the half-maximal inhibitory concentration (IC50) in series [1] (setting [7]) was 1.2 nM. Still for that read-out and setting: with `COc1cc2cc(c1-c1ccc(NC(=O)CCC(C)S)cc1)N(C)C(=O)C[C@H](OC(=O)C(C)C)[C@]1(C)O[C@H]1[C@H](C)[C@@H]1C[C@@](O)(NC(=O)O1)[C@H](OC)/C=C/C=C(\C)C2` (stereo partly drawn) [Compound 6] the figure was 2.7 nM; with `COc1cc2cc(c1-c1ccc(NC(=O)CCC(C)(C)S)cc1)N(C)C(=O)C[C@H](OC(=O)C(C)C)[C@]1(C)O[C@H]1[C@H](C)[C@@H]1C[C@@](O)(NC(=O)O1)[C@H](OC)/C=C/C=C(\C)C2` [Compound 9], 7.4 nM. The same measure, in the same setting: with `COc1cc2cc(c1-c1ccc(NC(=O)CCCS)cc1)N(C)C(=O)C[C@H](OC(=O)C(C)C)[C@]1(C)O[C@H]1[C@H](C)[C@@H]1C[C@@](O)(NC(=O)O1)[C@H](OC)/C=C/C=C(\C)C2` [Compound 12] the figure was 4.2 nM. Still for that read-out and setting: as for `COc1cc2cc(c1-c1ccc(NC(=O)CCS)cc1)N(C)C(=O)C[C@H](OC(=O)C(C)C)[C@]1(C)O[C@H]1[C@H](C)[C@@H]1C[C@@](O)(NC(=O)O1)[C@H](OC)/C=C/C=C(\C)C2` [Compound 15], the figure is 5.4 nM.

For `COc1cc2cc(c1-c1ccc(NC(=O)CCC(C)S)c(Cl)c1)N(C)C(=O)C[C@H](OC(=O)C(C)C)[C@]1(C)O[C@H]1[C@H](C)[C@@H]1C[C@@](O)(NC(=O)O1)[C@H](OC)/C=C/C=C(\C)C2` (stereo partly drawn) [Compound 18], in series [1] (setting [7]), the IC50 came out at 0.9 nM. The same measure, in the same setting: as for `COc1cc2cc(c1-c1ccc(NC(=O)CCC(C)(C)S)c(Cl)c1)N(C)C(=O)C[C@H](OC(=O)C(C)C)[C@]1(C)O[C@H]1[C@H](C)[C@@H]1C[C@@](O)(NC(=O)O1)[C@H](OC)/C=C/C=C(\C)C2` [Compound 21], the figure is 1.7 nM.

`COc1cc2cc(c1-c1ccc(NC(=O)CCS)c(Cl)c1)N(C)C(=O)C[C@H](OC(=O)C(C)C)[C@]1(C)O[C@H]1[C@H](C)[C@@H]1C[C@@](O)(NC(=O)O1)[C@H](OC)/C=C/C=C(\C)C2` [Compound 23]: the IC50 in series [1] (setting [7]) turned out to be 4.2 nM.

Regarding `COc1cc2cc(c1-c1ccc(NC(=O)CCC(C)SSC(C)CCC(=O)O)cc1)N(C)C(=O)C[C@H](OC(=O)C(C)C)[C@]1(C)O[C@H]1[C@H](C)[C@@H]1C[C@@](O)(NC(=O)O1)[C@H](OC)/C=C/C=C(\C)C2` (stereo partly drawn) [Compound 26], the “degradation in mouse serum” value in series [4] was “no comparable degradation products were observed; also recorded: no degradation products equivalent to A and B”. With `COc1cc2cc(c1/C=C/CN)N(C)C(=O)C[C@H](OC(=O)C(C)C)[C@]1(C)O[C@H]1[C@H](C)[C@@H]1C[C@@](O)(NC(=O)O1)[C@H](OC)/C=C/C=C(\C)C2` [Compound 31, reference compound], the concentration for half-maximal inhibition (IC50) in series [1] (setting [7]) came out at 33.4 nM. On the same count and under the same terms, as for `COc1cc2cc(c1-c1ccc(N)cc1)N(C)C(=O)C[C@H](OC(=O)[C@H](C)N(C)C(C)=O)[C@]1(C)O[C@H]1[C@H](C)[C@@H]1C[C@@](O)(NC(=O)O1)[C@H](OC)/C=C/C=C(\C)C2` [Compound 32], the figure is 5.5 nM. `COc1cc2cc(c1Cl)N(C)C(=O)C[C@H](OC(=O)[C@H](C)N(C)C(=O)CCC(C)SSC(C)CCC(=O)O)[C@]1(C)O[C@H]1[C@H](C)[C@@H]1C[C@@](O)(NC(=O)O1)[C@H](OC)/C=C/C=C(\C)C2` (stereo partly drawn) [Compound 78, reference compound]: the “degradation in mouse serum” value in series [4] was “significant degradation”. On to `COc1cc2cc(c1Cl)N(C)C(=O)C[C@H](OC(=O)[C@H](C)N(C)C(=O)CCS)[C@]1(C)O[C@H]1[C@H](C)C1C[C@@](O)(NC(=O)O1)[C@H](OC)/C=C/C=C(\C)C2` [DM1, reference compound], for which the half-maximal inhibitory concentration (IC50) in series [3] was determined as 9 nM; in series [1] (setting [6]) it was 10 nM.

These data come from patent US10654873B2, “Cytotoxic agents and conjugates thereof” (priority 2016, dated 2020).
